Patent US7678884B2, “Biologically active peptide and agent containing the same” (Seikagaku Corporation, priority 2003, dated 2010)
Ends that are not written are not given here.

Experiments:
[1] = system: periodontal disease model; assay: Periodontal disease model (histology of defect at first molar of the upper jaw); type: in vivo, Wistar rats; details: one month after operation
Experimental: The following experiment was performed in order to examine action of the peptide of the present invention on a periodontal disease model. • (i) Preparation of Periodontal Disease Model 8-week old Wistar rats were systemically anesthetized with an ethyl carbamate solution in a volume of 0.5 ml per 100 g of body weight, and then the mesial gingiva of each first molar on the upper jaw was vertically incised. The gingival periosteal flap was reflected to expose the mesial alveolar bone of the first molar. Then, a defect having a length of about 2 mm and a buccolingual diameter of about 1 mm was formed from the alveolar bone crest of the same site towards the root apex side by using a fissure bur under pouring saline to expose the mesial root face of the first molar on the upper jaw. The root cementum and surface of dentin was removed together with the periodontal ligament attached to the exposed root face so as to make a shallow cavity. • (ii) Test Method At the aforementioned defect, a sample prepared with 1% PBS solution of sodium hyaluronate (weight average molecular weight: 900,000) was applied on the exposed root face, and the gingival periosteal flap was repositioned and sutured. By using a group of the animals applied with 1% PBS solution of sodium hyaluronate containing the peptide (a) (concentration of the peptide (a): 0.3 mg/ml) as the peptide group, a group of the animals applied with 1% PBS solution of sodium hyaluronate alone as the hyaluronic acid group, and a group of the animals applied with no substance before suture of the gingival periosteal flap for restoration as the control group, healing conditions were compared one month after the operation. The animals were euthanized with chloroform, and each experimental site was excised. The excised upper jaw bone was fixed by immersion in neutrally buffered formalin for 1 day and then decalcified over 2 days by using a rapid decalcifying solution (K-CX). The specimen was embedded in paraffin in a conventional manner, then a mesiodistal section having a thickness of […] and parallel to the longitudinal axis of the tooth root was prepared at the experiment site and stained with hematoxylin/eosin. Adhesion condition of periodontal tissue to the exposed surface of the tooth root at the defective site and the position of the apex of the alveolar bone were evaluated light microscopically. • (iii) Results (Findings)

MC3T3 cells = assay: Calcification product forming ability of MC3T3 cells (Dahl's calcium staining); type: cell-based, mouse; details: two weeks after confluent state
Experimental: To assess calcification ability of cells, Dahl's calcium staining was performed. The PDL cells were inoculated on a 24-well culture plate at a ratio of 5×10^3 cells/well, and cultured in 2S-containing DMEM added with the peptide (a) or (c) at various concentrations and adjusted by addition of 10 mM sodium β-glycerophosphate. […]
Further, the peptide (a), BMP2 and TGFβ were similarly examined by using the MC3T3 cells.

PDL cells = assay: Calcification product forming ability of PDL cells (Dahl's calcium staining, alizarin red S); type: cell-based, human; details: peptide at various concentrations, 10 mM sodium β-glycerophosphate, three weeks after confluent state
Experimental: The following experiment was performed to examine effect of the peptide on calcification product forming ability of cells.
To assess calcification ability of cells, Dahl's calcium staining was performed. The PDL cells were inoculated on a 24-well culture plate at a ratio of 5×10^3 cells/well, and cultured in 2S-containing DMEM added with the peptide (a) or (c) at various concentrations and adjusted by addition of 10 mM sodium β-glycerophosphate. Three weeks after the cells reached a confluent state, the cells were washed with PBS, fixed with neutrally buffered formalin and stained with alizarin red S (Wako Pure Chemical Industries).

OCCM30 cells = assay: Cell differentiation of OCCM30 cells (ALP activity); type: cell-based, mouse; details: DMEM containing 2% FBS; versus control (FIG. 11)
Experimental: As mouse-derived cementoblasts, cells of the OCCM30 cell strain (Bone, 1999 Jul., 25(1):39-47) were used. This cell strain was provided from Professor Somerman of School of Dentistry University of Washington.
As an index of cell differentiation, alkaline phosphatase (ALP) activity of cells was determined. Cells were inoculated in a 24-well culture plate at a ratio of 5×10^3 cells/well, added with the peptide (a) at various concentrations and cultured in DMEM or αMEM containing 2% FBS. One week after the time point when the cells reached a confluent state, ALP activity was determined by the following enzymochemical method (Bessey-Lowry method, Bessey O A, Lowry O H and Brock M J, A method for the rapid determination of alkaline phosphatase with five cubic millimeter of serum, J. Biol. Chem., 164:321-329, 1946).
The cultured cells were washed with PBS and then disrupted in 10 mM Tris-HCl buffer (pH 7.4, 500 μl) for 40 seconds by using an ultrasonic homogenizer (Handy Sonic model UR-20P, Tomy Seiko) and stirred. Then, 25 μl of this sample liquid was added to 125 μl of ALP buffer (0.1 M carbonate buffer, pH 9.8, 6.7 mM p-nitrophenyl phosphate, 2 mM MgCl2) and incubated at 37° C. for 30 minutes. The reaction was terminated by addition of 125 μl of 0.2 N NaOH, and absorbance was measured at 405 nm by using a microplate reader (Model 550, Bio-Rad Laboratories). […]

[2] = peptide (a) 0.3 mg/ml in 1% PBS solution of sodium hyaluronate

Question: Which results are given for VPAFPRQPGTPGVASL [Peptide (a)]?
Answer: down-growth of the epithelium ([1]; peptide (a) 0.3 mg/ml in 1% PBS solution of sodium hyaluronate applied on exposed root face, versus control and hyaluronic acid groups): observed to a less extent; deposition of cementum with Sharpey's fibers on the exposed root surface [1, 2]: deposition of cementum with Sharpey's fibers, that is, new connective tissue attachment formation, was observed; separation between the gingiva and the tooth root [1, 2]: no such separation was observed; bone regeneration at the periodontal defect ([1]; peptide (a) 0.3 mg/ml in 1% PBS solution of sodium hyaluronate, versus control and hyaluronic acid groups): more active than in the other two groups; cell differentiation promoting effect (calcification) on MC3T3 cells (MC3T3 cells): significant cell differentiation promoting effect; cell differentiation promoting effect (calcification) on MC3T3 cells relative to BMP2 (MC3T3 cells; comparison with BMP2): comparable to or higher than that of BMP2; calcification ability of the PDL cells (PDL cells): significantly increased; cell differentiation promoting effect (ALP activity) on OCCM30 cells (OCCM30 cells): significant cell differentiation promoting effect
